Assay results as given in the NIST ThermoML archive (doi:10.1016/j.jct.2014.05.019).
± gives the expanded uncertainty stated by the source.

Assay: xn = mol fraction of the nth substance listed
Conditions: 100 kPa, Liquid; for viscosity: Falling or rolling sphere viscometry; for mass density: Vibrating tube method; for electrical conductivity: Alternating current cell with electrodes

NC(CO)C(=O)[O-].[Na+] (stereo not drawn) [sodium DL-serine] + O
Conditions	electrical conductivity [S/m]	mass density [kg/m3]	viscosity [mPa·s]
323.15 K, x1 = 0.009	–	1020.2 ± 1	–
323.15 K, x1 = 0.018	–	1051.2 ± 1	–
323.15 K, x1 = 0.028	–	1081.5 ± 1	–
323.15 K, x1 = 0.037	–	1111.1 ± 1	1.26 ± 0.041
323.15 K, x1 = 0.048	–	1140.1 ± 1	1.608 ± 0.042
323.15 K, x1 = 0.058	–	1170.8 ± 1	–
323.15 K, x1 = 0.059	–	–	2.091 ± 0.043
328.15 K, x1 = 0.009	4.17 ± 0.08	1017.8 ± 1	0.6217 ± 0.04
328.15 K, x1 = 0.018	6.59 ± 0.13	1048.7 ± 1	0.7448 ± 0.04
328.15 K, x1 = 0.028	8.05 ± 0.16	1078.9 ± 1	0.9186 ± 0.041
328.15 K, x1 = 0.037	8.86 ± 0.18	1108.3 ± 1	1.149 ± 0.041
328.15 K, x1 = 0.048	9.12 ± 0.18	1137.3 ± 1	1.452 ± 0.042
328.15 K, x1 = 0.058	8.97 ± 0.18	1167.9 ± 1	–
328.15 K, x1 = 0.059	–	–	1.872 ± 0.042
333.15 K, x1 = 0.009	4.48 ± 0.09	1015.3 ± 1	0.575 ± 0.04
333.15 K, x1 = 0.018	7.06 ± 0.14	1046 ± 1	0.692 ± 0.04
333.15 K, x1 = 0.028	8.64 ± 0.17	1076.1 ± 1	0.8431 ± 0.041
333.15 K, x1 = 0.037	9.52 ± 0.19	1105.5 ± 1	1.055 ± 0.041
333.15 K, x1 = 0.048	9.82 ± 0.2	1134.4 ± 1	1.321 ± 0.041
333.15 K, x1 = 0.058	9.74 ± 0.19	1164.9 ± 1	–
333.15 K, x1 = 0.059	–	–	1.709 ± 0.042
338.15 K, x1 = 0.009	4.8 ± 0.1	1012.7 ± 1	0.537 ± 0.04
338.15 K, x1 = 0.018	7.53 ± 0.15	1043.2 ± 1	0.6342 ± 0.04
338.15 K, x1 = 0.028	9.24 ± 0.18	1073.3 ± 1	0.7788 ± 0.04
338.15 K, x1 = 0.037	10.2 ± 0.2	1102.6 ± 1	0.9608 ± 0.041
338.15 K, x1 = 0.048	10.6 ± 0.21	1131.4 ± 1	1.206 ± 0.041
338.15 K, x1 = 0.058	10.5 ± 0.21	1161.8 ± 1	–
338.15 K, x1 = 0.059	–	–	1.531 ± 0.042
343.15 K, x1 = 0.009	5.1 ± 0.1	1009.9 ± 1	0.4983 ± 0.04
343.15 K, x1 = 0.018	8.01 ± 0.16	1040.4 ± 1	0.5945 ± 0.04
343.15 K, x1 = 0.028	9.84 ± 0.2	1070.4 ± 1	0.72 ± 0.04
343.15 K, x1 = 0.037	10.8 ± 0.22	1099.6 ± 1	0.8858 ± 0.041
343.15 K, x1 = 0.048	11.3 ± 0.23	1128.4 ± 1	1.108 ± 0.041
343.15 K, x1 = 0.058	11.3 ± 0.23	1158.7 ± 1	–
343.15 K, x1 = 0.059	–	–	1.399 ± 0.041
